Results on six compounds are retold here after patent publication US20180360093A1, “NUTRITIONAL COMPOSITIONS AND INFANT FORMULAS TO PROMOTE MYELINATION IN THE BRAIN” (NESTEC S.A., priority 2015, published 2018).

This assay concerns brain myelination. Put plainly: Cross-sectional correlation analysis (GLM) of formula nutrient composition versus brain myelination (MWF by mcDESPOT MRI). Conditions: children up to 5 years fed different infant formulas during infancy; voxel-wise correlations, p<0.05 corrected. The assay is classed as in vivo, human. Here is the method: MRI brain scans of infants and children between 0 and 5 years were acquired using a white matter imaging technique. This technique provides a quantitative measure, the Myelin Water Fraction (MWF), which is a surrogate marker of myelin content. When mapped as a function of time across early childhood, myelination trajectories can be generated.
Infant formula composition: six infant formulas fed to infants participating in study were analyzed for their composition/level of myelin-relevant nutrients.
Infants included in this study were drawn from a larger longitudinal study of normal brain and behavioral development: the Brown university Assessment of Myelination and Behavior Across Maturation (BAMBAM). To focus on neurotypical development, children with known potential risk factors for learning, neurologic, or psychiatric disorders were specifically excluded during recruitment and enrollment. Thus, children with in utero alcohol or illicit substance exposure, premature (<37 weeks gestation) or multiple birth, fetal ultrasound abnormalities, complicated pregnancy (e.g., preeclampsia), APGAR scores<8, NICU admission, neurological disorder (e.g., head injury, epilepsy), psychiatric or developmental disorders in the infant, parents or siblings (including maternal depression requiring medication) were excluded. Ongoing screenings, such as the MCAT for autism, or CBCL for behavioral problems, were further used to remove enrolled children with clinically concerning behaviors or overt medical conditions (such as autism spectrum disorders).
A combination of retrospective and prospective data were acquired from parents via detailed medical histories and parental interview on type of infant formula used, percentage of breastfeeding to formula feeding, and length of exclusive breastfeeding. This information was updated at each study visit, which occurred approximately every 6 months for children under 2 years, and yearly for older children. Using this information, children were categorized into one of 2 groups: #1. Exclusively formula-fed; and #2. Exclusively breastfed for at least 90 days (3 months). Children who were fed a combination of breastmilk and formula within 3 months were excluded from our analysis. Infants within the exclusively formula-fed group were further sub-divided based on parental reports of the main infant formula used throughout the first 3 months. Main formula was defined as that given 90% of the time or more (in the case were parents used an alternate brand during vacation, for example).
Using these criteria, 94 exclusively formula-fed infants and young children were selected into group #1. These included 13 children who received formula #2; 28 who received formula #5; 8 who received formula #3; 39 who received formula #4; 5 who received formula #1 and 1 who received formula #6. A sample of 52 exclusively breast-fed infants were also selected and matched to the over formula-fed group with regards to mean age, gestation duration, birth weight, male:female ratio, ethnicity ratio, maternal education, family size, and number of languages spoken in the home (in addition to English).
Each infant was scanned using the mcDESPOT (multicomponent Driven Equilibrium Single Pulse Observation of T1 and T2) white matter imaging technique Deoni et al. (Magn. Reson. Med. 2008, 60:1372-1387), which provides a quantitative measure of the myelin water fraction (MWF) at each imaging point throughout the brain. All infants were scanned during natural (i.e. non-sedated) sleep using acoustically-muffled mcDESPOT imaging protocols. Total imaging times ranged from 19 minutes for the youngest toddlers to 24 minutes for the older 4 year-old children.

As for `C[N+](C)(C)CCO` [Choline], the “nutritional drivers for myelination (final general linear model)” value (from here on “nutritional drivers for myelination”) was “identified drivers”.

`CCCCC/C=C\C/C=C\C/C=C\C/C=C\CCCC(=O)O` [ARA, arachidonic acid]: the “nutritional drivers for myelination” value is “identified drivers”.

Consider Vitamin B12, for which the “nutritional drivers for myelination” value is given as “identified drivers”.

Consider sphingomyelin, for which the “nutritional drivers for myelination” value was “identified drivers”.

Regarding phosphatidylcholine, the “nutritional drivers for myelination” value is given as “identified drivers”.

phosphatidylinositol: the “nutritional drivers for myelination” value is “identified drivers”.
